Consider one substance from patent US5219825A, “Synergistic herbicidal compositions comprising herbicides which generate toxic oxygen radicals and chelating agents which inhibit their detoxification” (Yeda Research and Development Co., Ltd., priority 1986, dated 1993).

In the assay the test system is leaves. Put plainly: Blocked chelate controls tested for synergism with paraquat. The class given is in vivo. From the text:
The commercial fungicides, maneb [manganese ethylene-bis(dithiocarbamate) (polymeric)] and zineb [zinc ethylene-bis (dithiocarbamate) (polymeric)] were used, they have similar structures and effects as DDC, but are blocked and act as chelate controls […] to clarify that a synergism would be due to the chelating effect of diethyldithiocarbamate. […] They could not chelate copper due to their being blocked.

In the case of “manganese ethylene-bis(dithiocarbamate) (polymeric) [maneb]”, the “synergistic effects with paraquat” value was “Neither maneb nor zineb had synergistic effects with paraquat”.
